From US8597904B2, “Pharmaceutical compositions for the treatment of conditions responsive to proteasome inhibition” (priority 2007, dated 2013) come the findings set out here.

In one assay the test system is p53. Nature of the assay: Western blot of total p53 protein levels in SK-N-SH cells. Type of assay: cell-based, human. As to the method:
Because p53 is a key regulator and mediator of apoptosis, the total protein levels of p53 in the p53-wild type cell line SK-N-SH were measured after treatment of cells with syringolin A. As a control, the p53-deficient cell line SKOV3 was tested in parallel. Cells at a concentration of 1.0×10^5 cells per ml were first seeded in six-well plates containing 2 ml of culture medium per well. […] Cells were incubated for 0, 24, and 48 hours, harvested, and lysed in radioimmuno-precipitation assay (RIPA) buffer (20 mM Tris-HCl, pH 7.5, 0.1% sodium lauryl sulphate, 0.5% sodium deoxycholate, 135 mM NaCl, 1% Triton X-100, 10% glycerol, 2 mM EDTA), supplemented with a protease inhibitor cocktail (Roche Molecular Biochemicals, Indianapolis, Ind.) and phosphatase inhibitors sodium fluoride (NaF; 20 mM) and sodium vanadate (Na3VO4; 0.27 mM). The total protein concentration was determined using the protein assay dye reagent from Bio-Rad Laboratories (Hercules, Calif.) and bovine serum albumin (BSA) as a standard. Cell lysates in Laemmli sample buffer (Bio-Rad Laboratories, Hercules, Calif.) containing 5% (v/v) β-mercaptoethanol were boiled for 5 minutes, and equal amounts of total protein were analyzed by 10% sodium dodecyl sulphate-polyacrylamide gel electrophoresis (SDS-PAGE) and Western blotting using PVDF membranes. p53 was detected in Western blotting with mouse monoclonal anti-p53 (sc-126) (diluted 1:250) from Santa Cruz Biotechnology (Santa Cruz, Calif.). Actin was also detected as a loading control using mouse monoclonal anti-β-actin (A5316) (diluted 1:1000) from Sigma Chemical Co. (St. Louis, Mo.). Alternatively, lysates were blotted with rabbit monoclonal anti-caspase-3 (#9665) (diluted 1:1000) or rabbit polyclonal anti-Akt (#9272) (diluted 1:1000), both from Cell Signalling Technology, Inc. (Beverly, Mass.) to test for levels of procaspase-3 and Akt/PKB. Secondary anti-mouse (diluted 1:5000) and anti-rabbit (diluted 1:5000) antibodies coupled to horseradish peroxidase (HRP) were from Amersham Biosciences (Piscataway, N.J.). Proteins were detected using the ECL Plus reagents (Amersham Biosciences, Piscataway, N.J.) and Kodak BioMax XAR film (Fisher Scientific, Pittsburgh, Pa.). The results are representative of three (p53, procaspase-3) or four (Akt/PKB) independent experiments.
As inhibition of the proteasome is expected to result in increased levels of ubiquitinated proteins (Meng, et al. 1999. Proc. Natl. Acad. Sci. U.S.A. 96:10403-10408, which is incorporated herein by reference in its entirety), the effect of syringolin A on total ubiquitinated protein accumulation was analyzed by immunoblot analysis. To do so, SK-N-SH cells were seeded in 6-well cell culture plates at a concentration of 3.8×10^5 cells per ml (1.98 ml per well). […]
A general note: A western blot detects proteins with antibodies after separation by electrophoresis.

For assay [1], the target named is T1, human erythrocyte 20S proteasomes, chymotrypsin-like activity (Homo sapiens, UniProt P28074).
T1 construct: which contains human erythrocyte 20S proteasomes; purchased BIOMOL International AK-740; host or cells: human erythrocytes
Format: biochemical. The settings on record: for inhibition of chymotrypsin-like activity: 37° C., 100 μM Suc-LLVY-AMC. Here is the method:
A 100 μl reaction volume contained 2 μg/ml 20S proteasome, 100 μM substrate, and the desired concentrations of syringolin A in dilution buffer (50 mM Tris-HCl, pH 7.5, 25 mM KCl, 10 mM NaCl, 1 mM MgCl2). Epoximicin and MG132 (BIOMOL® International) were used as test inhibitors. The release of free AMC (7-amino-4-methylcoumarin) at 37° C. was monitored with an MWGt Sirius HT fluorescence microplate reader (BIO-TEK® Instruments) equipped with a 360 nm excitation and a 460 nm emission filter. Proteolytic activities were measured as the increase in relative fluorescence units (RFU) over time (FIG. 7A-C). […] The initial velocities (vi) were determined from the time derivative of these curves and plotted versus the corresponding inhibitor concentration ([I]). […] Using SigmaPlot, the data were fitted to the hyperbolic equation vi=c+[v0/(Ki′+[I])], where v0 is the velocity of the control. […] The rate of covalent inhibition (kassociation), which equals kobs/[I] was calculated over the range of inhibitor concentrations given in parentheses in FIG. 7D. Values in FIG. 7D represent means±standard deviation.
The fluorogenic substrates Suc-LLVY-AMC, Boc-LRR-AMC, and Z-LLE-AMC (BIOMOL® International) were used to monitor chymotrypsin-like, trypsin-like, and caspase-like activities, respectively. […] The release of free AMC (7-amino-4-methylcoumarin) at 37° C. was monitored with an MWGt Sirius HT fluorescence microplate reader (BIO-TEK® Instruments) equipped with a 360 nm excitation and a 460 nm emission filter.

The structures appear in SMILES notation.

As for `CCCCCCC/C=C/C=C/C(=O)N[C@H](C(=O)N[C@H]1C[C@@H](O)CCNC(=O)/C=C/[C@H](C)NC1=O)[C@@H](C)O` [glidobactin A], the “total protein levels of p53” value with p53 (GlbA treatment) is recorded as “strong accumulation of p53”. In the assay on p53 (GlbA with 3-MA), the “GlbA-induced p53 levels in presence of 3-MA” value is “partially reduced”. Further, the “inhibition of chymotrypsin-like activity” value in assay [1] is reported as “blocked the chymotrypsin-like activity irreversibly at low concentrations”.

On to `CC(C)[C@H](NC(=O)N[C@H](C(=O)N[C@H]1/C=C/CCNC(=O)/C=C/[C@H](C(C)C)NC1=O)C(C)C)C(=O)O` [syringolin A], for which the p53 levels entry in the assay with p53 (20 μM, 24 hours after treatment) is recorded as “rapidly increased”. Further, the “protein levels of tumor suppressor protein p53” value with p53 (25 μM, time-course up to 24 hours) was “time-dependent increase”. Moreover, the “inhibition of chymotrypsin-like activity” value in assay [1] was “inhibited”. In addition, in assay [1] (FIG. 7A), the “mode of proteasome inhibition (reaction velocity over time)” value is “irreversible proteasome inhibitor”.
